Data published in patent US11331299B2, “Medicinal use of serrulatane diterpenes” (The University of Sydney, priority 2016, dated 2022).
Where two headings read alike, the source gives them in different places.

Columns and labels:
SETD7 (h) = biological target: T1, SETD7 (h) (Homo sapiens, UniProt Q8WTS6); assay: Epigenetic enzyme assay, Methyltransferases (MTs); assay type: biochemical; settings: for inhibition at 10 µM: read-out: % Inhibition of Control Values
T1 sequence (Q8WTS6 1-366): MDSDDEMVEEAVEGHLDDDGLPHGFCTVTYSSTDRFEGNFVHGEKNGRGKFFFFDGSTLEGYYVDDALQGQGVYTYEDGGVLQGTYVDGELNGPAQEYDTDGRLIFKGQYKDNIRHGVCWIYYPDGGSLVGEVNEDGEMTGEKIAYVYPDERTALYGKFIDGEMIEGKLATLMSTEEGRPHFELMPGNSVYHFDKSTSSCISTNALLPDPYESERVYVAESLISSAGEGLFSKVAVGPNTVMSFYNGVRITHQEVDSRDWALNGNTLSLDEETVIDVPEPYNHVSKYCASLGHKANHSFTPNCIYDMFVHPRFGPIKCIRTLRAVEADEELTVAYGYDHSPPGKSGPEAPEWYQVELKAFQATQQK

Deacetylase, Histone 2 = biological target: T2, Deacetylase, Histone 2 (Homo sapiens, UniProt Q92769); assay: Deacetylase, Histone 2 (PanLab); assay type: biochemical
T2 construct: host or cells: Insect Sf9 cells
Experimental: The in vitro pharmacological studies were conducted by Eurofins PanLab (Taiwan) using the parameters shown in Table 13 with respect to appropriate literature references.

CBX8 (h) chromodomain = biological target: T3, CBX8 (h) chromodomain (Homo sapiens, UniProt Q9HC52); assay: Epigenetic binding assay, Chromodomain; settings: read-out: % Inhibition of Control Specific Binding
T3 construct: Recognition and specificity determinants of the human cbx chromodomains; Eurofins CEREP (France), contract laboratory
T3 sequence (Q9HC52 11-69 limits assumed): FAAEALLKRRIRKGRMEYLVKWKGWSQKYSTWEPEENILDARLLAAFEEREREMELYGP

MLL3(h) complex = MLL3(h) complex (Homo sapiens, UniProt Q8NEZ4); assay: Epigenetic enzyme assay, Methyltransferases (MTs); assay type: biochemical; settings: for inhibition at 10 µM: read-out: % Inhibition of Control Values
EP300 (h) bromodomain = biological target: T4, EP300 (h) bromodomain (Homo sapiens, UniProt Q09472); assay: Epigenetic binding assay, Bromodomain; settings: for inhibition at 10 µM: read-out: % Inhibition of Control Specific Binding
T4 construct: Bromodomain
T4 sequence (Q09472 1049-1156 limits assumed): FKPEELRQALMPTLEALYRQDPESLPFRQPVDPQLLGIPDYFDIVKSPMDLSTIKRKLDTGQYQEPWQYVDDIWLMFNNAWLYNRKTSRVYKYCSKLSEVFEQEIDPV

[1] = biological target: PIM1(h) (histone H3 full length substrate) (Homo sapiens, UniProt P11309); assay: Epigenetic enzyme assay, Kinases; assay type: biochemical; settings: read-out: % Inhibition of Control Values
HDAC2 (h) = HDAC2 (h) (Homo sapiens, UniProt Q92769); assay: Epigenetic enzyme assay, Histone deacetylase (HDACs); assay type: biochemical; settings: read-out: % Inhibition of Control Values
[2] = biological target: T5, sirtuin 2 (h) (inhibitor effect) (Homo sapiens, UniProt Q8IXJ6); assay: Epigenetic enzyme assay, Sirtuins; assay type: biochemical; settings: 10 μM; read-out: % Inhibition of Control Values
T5 sequence (Q8IXJ6 1-389): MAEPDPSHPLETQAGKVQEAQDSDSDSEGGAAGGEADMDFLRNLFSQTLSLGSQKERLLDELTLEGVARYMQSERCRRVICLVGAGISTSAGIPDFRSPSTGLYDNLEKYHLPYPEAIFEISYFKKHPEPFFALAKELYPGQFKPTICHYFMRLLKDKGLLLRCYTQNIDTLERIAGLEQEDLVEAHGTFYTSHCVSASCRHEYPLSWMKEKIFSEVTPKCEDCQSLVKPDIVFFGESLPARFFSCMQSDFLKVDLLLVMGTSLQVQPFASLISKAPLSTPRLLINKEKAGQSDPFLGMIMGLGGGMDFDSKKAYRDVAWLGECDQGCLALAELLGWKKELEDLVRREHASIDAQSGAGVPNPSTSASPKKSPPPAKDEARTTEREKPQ

NSD3/WHSC1L1 (h) = biological target: T6, NSD3/WHSC1L1 (h) (Homo sapiens, UniProt Q9BZ95); assay: Epigenetic enzyme assay, Methyltransferases (MTs); assay type: biochemical; settings: 10 μM; read-out: % Inhibition of Control Values
T6 sequence (Q9BZ95 1-1437): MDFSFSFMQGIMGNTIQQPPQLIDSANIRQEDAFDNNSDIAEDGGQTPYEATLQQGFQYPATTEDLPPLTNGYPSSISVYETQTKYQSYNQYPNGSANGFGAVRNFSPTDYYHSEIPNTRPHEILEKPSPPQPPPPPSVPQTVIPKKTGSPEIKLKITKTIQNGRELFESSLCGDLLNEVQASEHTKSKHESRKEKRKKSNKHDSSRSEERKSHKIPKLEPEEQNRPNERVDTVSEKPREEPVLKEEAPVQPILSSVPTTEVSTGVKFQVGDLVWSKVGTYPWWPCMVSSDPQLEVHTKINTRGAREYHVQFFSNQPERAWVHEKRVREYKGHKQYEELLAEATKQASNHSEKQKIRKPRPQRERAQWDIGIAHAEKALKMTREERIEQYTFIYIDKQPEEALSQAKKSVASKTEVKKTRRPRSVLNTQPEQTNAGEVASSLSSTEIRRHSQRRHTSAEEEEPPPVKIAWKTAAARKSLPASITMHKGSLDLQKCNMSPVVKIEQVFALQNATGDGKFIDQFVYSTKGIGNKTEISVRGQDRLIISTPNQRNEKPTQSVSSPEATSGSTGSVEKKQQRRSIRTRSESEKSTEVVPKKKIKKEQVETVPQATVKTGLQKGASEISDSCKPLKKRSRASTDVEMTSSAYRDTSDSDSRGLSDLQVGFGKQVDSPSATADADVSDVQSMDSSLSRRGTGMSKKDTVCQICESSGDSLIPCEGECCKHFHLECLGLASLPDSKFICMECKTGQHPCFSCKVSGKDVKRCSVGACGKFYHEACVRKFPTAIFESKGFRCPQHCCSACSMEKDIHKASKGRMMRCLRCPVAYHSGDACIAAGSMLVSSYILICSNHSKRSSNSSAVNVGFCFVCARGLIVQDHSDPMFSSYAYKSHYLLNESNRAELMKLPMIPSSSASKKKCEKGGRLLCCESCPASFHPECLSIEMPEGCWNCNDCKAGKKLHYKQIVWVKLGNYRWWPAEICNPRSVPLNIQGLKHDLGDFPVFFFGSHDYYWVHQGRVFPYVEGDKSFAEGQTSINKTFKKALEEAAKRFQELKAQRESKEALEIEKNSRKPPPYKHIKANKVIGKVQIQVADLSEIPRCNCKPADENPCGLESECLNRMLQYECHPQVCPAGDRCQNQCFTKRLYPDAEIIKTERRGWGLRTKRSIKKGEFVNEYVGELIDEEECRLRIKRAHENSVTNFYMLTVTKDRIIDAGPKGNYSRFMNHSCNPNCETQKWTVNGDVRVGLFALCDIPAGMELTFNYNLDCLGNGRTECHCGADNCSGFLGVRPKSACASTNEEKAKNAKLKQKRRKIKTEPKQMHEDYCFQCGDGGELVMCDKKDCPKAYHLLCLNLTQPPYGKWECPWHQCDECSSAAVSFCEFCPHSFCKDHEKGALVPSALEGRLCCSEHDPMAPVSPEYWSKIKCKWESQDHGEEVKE

[3] = assay year 2014, read-out: % Control Response
[4] = assay year 2015, read-out: % Control Response

Sequence of HDAC2 (h) (Q92769 whole entry): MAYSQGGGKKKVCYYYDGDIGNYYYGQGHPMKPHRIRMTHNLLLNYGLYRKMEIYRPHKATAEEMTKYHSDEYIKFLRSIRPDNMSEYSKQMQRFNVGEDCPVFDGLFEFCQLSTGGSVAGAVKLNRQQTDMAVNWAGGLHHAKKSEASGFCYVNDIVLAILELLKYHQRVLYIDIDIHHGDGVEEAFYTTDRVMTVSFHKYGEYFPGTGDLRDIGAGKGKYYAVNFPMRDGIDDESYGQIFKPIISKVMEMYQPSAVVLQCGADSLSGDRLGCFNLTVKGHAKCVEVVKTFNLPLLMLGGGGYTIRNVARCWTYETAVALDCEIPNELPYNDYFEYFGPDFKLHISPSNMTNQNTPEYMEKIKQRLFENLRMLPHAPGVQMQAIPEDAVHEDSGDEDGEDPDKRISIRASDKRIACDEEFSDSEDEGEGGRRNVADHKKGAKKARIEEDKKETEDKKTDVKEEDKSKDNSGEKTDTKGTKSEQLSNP
T2 sequence (Q92769 whole entry): as above
Sequence of PIM1(h) (histone H3 full length substrate) (P11309 whole entry): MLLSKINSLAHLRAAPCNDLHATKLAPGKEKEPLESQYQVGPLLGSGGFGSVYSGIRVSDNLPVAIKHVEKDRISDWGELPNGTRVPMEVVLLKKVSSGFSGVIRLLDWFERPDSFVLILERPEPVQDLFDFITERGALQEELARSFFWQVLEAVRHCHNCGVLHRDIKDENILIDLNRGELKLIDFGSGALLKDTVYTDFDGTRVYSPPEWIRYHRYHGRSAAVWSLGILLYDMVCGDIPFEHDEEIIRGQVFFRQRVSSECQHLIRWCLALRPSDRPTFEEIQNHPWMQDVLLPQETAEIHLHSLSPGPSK

Compound: CC(C)=CCC[C@H](CO)[C@@H]1CC[C@@H](C)c2c1cc(C)c(O)c2O [Compound 1, 7,8,18-trihydroxyserrulat-14-ene]
- inhibition at 10 µM (SETD7 (h)): 12%
- remaining activity at 10 µM (Deacetylase, Histone 2; [3]): 56%
- remaining activity at 10 µM (Deacetylase, Histone 2; [4]): 34%
- inhibition at 10 µM (CBX8 (h) chromodomain): 27%
- inhibition at 10 µM (MLL3(h) complex): -22%
- % Inhibition of Control Specific Binding (EP300 (h) bromodomain; 10 μM): significant inhibitory activity
- inhibition at 10 µM (EP300 (h) bromodomain; 10 μM): 89%
- IC50 (EP300 (h) bromodomain; Table 9, inhibition/concentration-response curve): 4.5 µM
- inhibition at 10 µM [1]: 22%
- inhibition at 10 µM (HDAC2 (h)): 1%
- inhibition at 10 µM [2]: -4%
- inhibition at 10 µM (NSD3/WHSC1L1 (h)): -17%

Compound: CC(C)=CCC[C@@H]1C(O)Oc2c(C)cc(O)c3c2[C@H]1CC[C@H]3C (stereo partly drawn) [Compound 2, 5,18-epoxyserrulat-14-en-8,18-diol]
- inhibition at 10 µM (SETD7 (h)): 16%
- remaining activity at 10 µM (Deacetylase, Histone 2; [3]): 44%
- remaining activity at 10 µM (Deacetylase, Histone 2; [4]): 21%
- inhibition at 10 µM (CBX8 (h) chromodomain): 31%
- inhibition at 10 µM (MLL3(h) complex): -21%
- inhibition at 10 µM (EP300 (h) bromodomain; 10 μM): 37%
- inhibition at 10 µM [1]: 11%
- inhibition at 10 µM (HDAC2 (h)): 0%
- inhibition at 10 µM [2]: 6%
- inhibition at 10 µM (NSD3/WHSC1L1 (h)): 11%

Compound: CC(C)=CCC[C@@H]1COc2c(C)cc(O)c3c2[C@H]1CC[C@H]3C [Compound 3, 5,18-epoxy-8-hydroxyserrulat-14-ene]
- inhibition at 10 µM (SETD7 (h)): -2%
- remaining activity at 10 µM (Deacetylase, Histone 2; [4]): 12%
- inhibition at 10 µM (CBX8 (h) chromodomain): 23%
- inhibition at 10 µM (MLL3(h) complex): -33%
- inhibition at 10 µM (EP300 (h) bromodomain; 10 μM): 40%
- inhibition at 10 µM [1]: 5%
- inhibition at 10 µM (HDAC2 (h)): -2%
- inhibition at 10 µM [2]: -19%
- inhibition at 10 µM (NSD3/WHSC1L1 (h)): -35%

Compound: Nc1ncnc2c1ncn2[C@@H]1O[C@H](CSCC[C@H](N)C(=O)O)[C@@H](O)[C@H]1O [SAH]
- IC50 (SETD7 (h); read-out: Reference IC50): 24 µM
- IC50 (MLL3(h) complex; read-out: Reference IC50): 9 µM
